# Experiments:
# C57BL/6J male mice [1] = test: BUN and Cre values in serum after tail-vein administration of PMO dosing solutions with or without sucrose (Example 2); conditions: Example 2, PMO Nos. 8 and 9 with sucrose
# Protocol: (§1) The obtained dosing solutions were administered into the tail vein of 6-week-old C57BL/6J male mice (N=3) at 10 and 12 mL/kg. Next day, serum was collected from the mice, and the blood urea nitrogen (BUN) values and blood creatinine (Cre) values were measured with the urease-GIDH method and the enzymatic method, respectively, using an automatic biochemical analyzer JCA-BM8060 (manufactured by JEOL Ltd.). […] Sections obtained by slicing the samples were subjected to hematoxylin-eosin staining and a histopathological test of the sections was performed.
# [2] = test system: kidney of C57BL/6J male mice; conditions: mouse, in vivo
# Protocol: The obtained dosing solutions were administered into the tail vein of 6-week-old C57BL/6J male mice (N=5) at 20 mL/kg. Next day, the mice were subjected to autopsy, and formalin-fixed paraffin-embedded samples of the respective kidneys were prepared. Sections obtained by slicing the samples were subjected to hematoxylin-eosin staining and a histopathological test of the sections was performed.
# [3] = test system: kidney of C57BL/6J male mice; test: Histopathological test of kidney (hematoxylin-eosin) after PMO No. 8 with or without sucrose (Example 2); conditions: Example 2, histopathological test, PMO No. 8 with sucrose
# Protocol: as §1
# C57BL/6J male mice [4] = test: BUN and Cre values in serum after tail-vein administration of PMO dosing solutions with or without sucrose or trehalose (Example 5); conditions: Example 5, PMO Nos. 1, 8 and 9 with sucrose or trehalose
# Protocol: Also, the antisense oligomers of PMO Nos. 1, 8, and 9 were each dissolved in water for injection comprising 0.9% sodium chloride, and a solution obtained by dissolving trehalose (manufactured by FUJIFILM Wako Pure Chemical Corporation) with physiological saline was added thereto to prepare a dosing solution comprising each of the antisense oligomers and trehalose at the concentrations shown in Tables 15 to 17.
# The obtained dosing solutions were administered into the tail vein of 6-week-old C57BL/6J male mice (N=2 to 3) at 20 mL/kg. Next day, serum was collected from the mice, and the blood urea nitrogen (BUN) values and blood creatinine (Cre) values were measured with the urease-GIDH method and the enzymatic method, respectively, using an automatic biochemical analyzer JCA-BM8060 (manufactured by JEOL Ltd.).
# [5] = Precipitation suppressing effect of trehalose, absorbance at 620 nm in the presence of ions assumed to be in urine (Example 7); format: physicochemical; conditions: Example 7, PMO Nos. 1, 2, 7, 8; aqueous solution of trehalose versus water for injection; KCl and NaCl, 37° C.
# Protocol: Each of the antisense oligomers was dissolved in water for injection or an aqueous solution of trehalose, and the mixture was then mixed with an aqueous solution comprising potassium chloride and sodium chloride assumed to be in urine. The absorbance at 620 nm of the solution thus mixed was measured using a plate reader, Infinite F200 Pro (manufactured by Tecan Group Ltd.) under the heating condition of 37° C. […] Accordingly, conditions were set under which the precipitation was observed using water for injection as a medium for each sequence. Another measurement was performed under the same conditions as obtained except that only the medium was changed to an aqueous solution of trehalose, and then the absorbance obtained under both the conditions was compared to each other. When the absorbance was increased, precipitation was determined to be observed, and a time until the precipitation was observed and the increased value of the absorbance were evaluated. When the aqueous solution of trehalose was used as the medium, it was determined that the precipitation suppressing effect was presented in a case where the time until the precipitation was observed was longer or in a case where the increased value of the absorbance was smaller than the case of using the water for injection as the medium.
Compound,Nephrotoxicity reducing effect (BUN values and Cre values versus control dosing solution comprising no sucrose) (C57BL/6J male mice [1]),Nephrotoxicity reducing effect (toxicological findings on the histopathological test of the kidney) [2],Amount of precipitates (basophilic substances in the lumens of renal tubules) [3],Nephrotoxicity reducing effect (BUN values and Cre values versus dosing solution comprising neither sucrose nor trehalose) (C57BL/6J male mice [4]),"Precipitation suppressing effect (time until the precipitation was observed, increase of the absorbance at 620 nm) [5]"
OC[C@H]1O[C@@](CO)(O[C@H]2O[C@H](CO)[C@@H](O)[C@H](O)[C@H]2O)[C@@H](O)[C@@H]1O [sucrose],confirmed to reduce nephrotoxicity,confirmed to reduce nephrotoxicity,amount of precipitates decreased according to the concentrations of sucrose,confirmed to reduce nephrotoxicity,–
OC[C@H]1O[C@H](O[C@H]2O[C@H](CO)[C@@H](O)[C@H](O)[C@H]2O)[C@H](O)[C@@H](O)[C@@H]1O [trehalose],–,–,–,confirmed to reduce nephrotoxicity,suppress the precipitation of antisense oligomers

# From patent US20240316093A1, “NEPHROTOXICITY REDUCING AGENT” (NIPPON SHINYAKU CO., LTD., priority 2021, published 2024)
